US10301288B2, “Kinase inhibitors” (Topivert Pharma Limited, priority 2013, dated 2019)
Marks after values point to notes of the source that are not given here.

Legend:
[1] = Hepatic microsomal stability, rat; type: in vitro ADME; conditions: pooled liver microsomes, read-out: Mean intrinsic clearance
Experimental: • Microsomal stability assays were performed with incubations of test compounds at 0.1 μM (n=2, final DMSO concentration 0.25%), and carried out using pooled human, […], rat and Cynomolgus macaque hepatic microsomes from Xenotech (Lots 1210153, 0810143 and 1110042, respectively) at 0.25 mg protein/mL in the presence of cofactor, NADPH. The incubations were performed at 37° C. with 100 μL aliquots taken from the incubation, at 0, 2, 5, 10 and 20 minutes (and, in the case of Cynomolgus macaque hepatic microsomes, 40 minutes) and reactions terminated by addition of 100 μL of acetonitrile containing carbamazepine as analytical internal standard. […] Half-life values were calculated from the relationship T1/2 (min)=−0.693/λ • where λ was the slope of the Ln concentration vs time curve. • The in vitro intrinsic clearance, Clint (mL/min/kg), was calculated and scaled to hepatic extraction ratios using the following scaling parameters and formulae.
Formulae Clint(tissue clearance) mL/min/kg=[0.693/t½ (min)]×[1/microsomal protein concentration mg/mL]×[mg microsomes/g liver]×[g liver/kg body weight] […] Half-life values were calculated from the relationship T1/2 (min)=−0.693/λ • where λ was the slope of the Ln concentration vs time curve. • Standard compounds testosterone, midazolam and 4-methylumbelliferone are included in the assay design.

[2] = Cryopreserved hepatocyte stability, human; type: in vitro ADME; conditions: pooled cryopreserved hepatocytes, read-out: Mean intrinsic clearance
Experimental: (§1) Formulae Clint(tissue clearance) mL/min/kg=[0.693/t½ (min)]×[1/microsomal protein concentration mg/mL]×[mg microsomes/g liver]×[g liver/kg body weight] […] The incubations were performed at 37° C. with 100 μL, samples taken from the incubation, at 0, 10, 20, 45 and 90 minutes, and reactions terminated by addition of 100 μL of acetonitrile containing carbamazepine as analytical internal standard. […] Half-life values were calculated from the relationship T1/2 (min)=−0.693/λ • where λ was the slope of the Ln concentration vs time curve. • Standard compounds testosterone, midazolam and 4-methylumbelliferone are included in the assay design.
(§2) Clint(Tissue Clearance) mL/min/kg=[0.693/t½(min)]×[1/hepatocyte concentration (million cells/mL)]×[million cells/g liver]×[g liver/kg body weight] Clint(Hepatic clearance) mL/min/kg=hepatic blood flow×Clint/(hepatic blood flow+Clint) Hepatic extraction ratio(Eh)=Clint(Hepatic clearance) mL/min/kg/hepatic blood flow (mL/min/kg)

[3] = system: PBMCs; assay: (c) IL-2 and IFN gamma release in CD3/CD28 stimulated PBMC cells; type: cell-based; conditions: Homo sapiens, read-out: IC50 for Inhibition of Cytokine Release, IFNγ
Experimental: PBMCs from healthy subjects are separated from whole blood using a density gradient (Lymphoprep, Axis-Shield Healthcare). Cells are added to a 96 well plate pre-coated with a mixture of CD3/CD28 monoclonal antibodies (0.3 ug/ml eBioscience and 3 ug/ml BD Pharmingen respectively). Compound at the desired concentration is then added to the wells and the plate left for 3 days under normal tissue culture conditions. […] The IC50 is determined from the dose response curve.

[4] = system: 71 receptors and 26 enzymes; assay: Cerep Diversity Profile; type: binding; conditions: 300 nM; any of 71 receptors and 26 enzymes
[5] = system: adoptive transfer mouse model; assay: (D) Adoptive transfer in mice; type: in vivo, female SCID mice
Experimental: On Study day 0, female Balb/C mice are terminated and spleens obtained for CD45RB^high cell isolation (Using SCID IBD cell Separation protocol). Approximately 4×10^5 cells/mL CD45RB^high cells are then injected IP (100 μL/mouse) into female SCID animals. On study day 14, mice are weighed and randomized into treatment groups based on body weight. On Day 14 compounds are administered BID, via oral gavage, in a peanut oil vehicle at the dose levels outlined below and a dose volume of 5 mL/kg. Treatment continues until study day 42, at which point the animals are necropsied 4 hours after am administration. The colon length and weight is recorded and used as a secondary endpoint in the study as a measurement of colon oedema. The colon is then divided into six cross-sections, four of which are used for histopathology scoring (primary endpoint) and two are homogenised for cytokine analysis. Data shown is the % inhibition of the induction window between naïve animals and vehicle animals, where higher inhibition implies closer to the non-diseased, naïve, phenotype.

[6] = target: CYP2C9 (Homo sapiens (Human), UniProt P11712); assay: CYP450 time-dependent inhibition, CYP2C9; type: in vitro ADME
CYP2C9, sequence (P11712 whole entry): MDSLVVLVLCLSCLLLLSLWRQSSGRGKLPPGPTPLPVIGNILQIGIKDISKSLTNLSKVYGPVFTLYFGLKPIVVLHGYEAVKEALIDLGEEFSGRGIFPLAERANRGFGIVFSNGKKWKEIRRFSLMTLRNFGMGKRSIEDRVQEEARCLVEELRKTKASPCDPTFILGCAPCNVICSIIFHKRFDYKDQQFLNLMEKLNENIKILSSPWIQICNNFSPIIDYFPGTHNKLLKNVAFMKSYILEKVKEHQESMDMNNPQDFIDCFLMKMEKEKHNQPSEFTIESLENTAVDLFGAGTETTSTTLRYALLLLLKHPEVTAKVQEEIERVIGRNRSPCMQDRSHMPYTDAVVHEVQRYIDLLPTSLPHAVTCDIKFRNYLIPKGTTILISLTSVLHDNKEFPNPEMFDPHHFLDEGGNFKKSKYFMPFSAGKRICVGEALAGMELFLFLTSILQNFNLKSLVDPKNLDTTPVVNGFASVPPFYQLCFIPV
Experimental: CYP450 time-dependent inhibition (TDI) assays were performed with test compound at six test concentrations, 0.062 μM to 15 μM (n=2). The test compounds was pre-incubated for 30 minutes with pooled human hepatic microsomes in 0.1 M Tris buffer, pH 7.4, at 37° C. in the presence of cofactor NADPH. A parallel series of incubations (n=2) were prepared with no pre-incubation. Probe substrates were then added (with additional cofactor) and further incubated for the times specified. Concentrations of probe substrates used in the incubations have been optimised to maintain first order reaction conditions.
Reactions were terminated with acetonitrile containing analytical internal standard (carbamazepine), samples then centrifuged to remove microsomal protein and analysed using optimised LC/MS-MS conditions. The MS data were normalised to internal standard and compared to the appropriate solvent controls to determine the amount of metabolite formed from the probe substrate relative to the “uninhibited” controls. The results are quoted as % inhibition.
Variation in probe turnover between plate wells means that inhibition values recorded below 10-15% may not be significant.

[7] = Cryopreserved hepatocyte stability, dog; type: in vitro ADME; conditions: pooled cryopreserved hepatocytes, read-out: Mean intrinsic clearance
Experimental: as §1, §2

[8] = target: hERG (Homo sapiens (Human), UniProt Q12809); assay: hERG inhibition, IonWorks patch clamp; type: cell-based
hERG, sequence (Q12809 whole entry): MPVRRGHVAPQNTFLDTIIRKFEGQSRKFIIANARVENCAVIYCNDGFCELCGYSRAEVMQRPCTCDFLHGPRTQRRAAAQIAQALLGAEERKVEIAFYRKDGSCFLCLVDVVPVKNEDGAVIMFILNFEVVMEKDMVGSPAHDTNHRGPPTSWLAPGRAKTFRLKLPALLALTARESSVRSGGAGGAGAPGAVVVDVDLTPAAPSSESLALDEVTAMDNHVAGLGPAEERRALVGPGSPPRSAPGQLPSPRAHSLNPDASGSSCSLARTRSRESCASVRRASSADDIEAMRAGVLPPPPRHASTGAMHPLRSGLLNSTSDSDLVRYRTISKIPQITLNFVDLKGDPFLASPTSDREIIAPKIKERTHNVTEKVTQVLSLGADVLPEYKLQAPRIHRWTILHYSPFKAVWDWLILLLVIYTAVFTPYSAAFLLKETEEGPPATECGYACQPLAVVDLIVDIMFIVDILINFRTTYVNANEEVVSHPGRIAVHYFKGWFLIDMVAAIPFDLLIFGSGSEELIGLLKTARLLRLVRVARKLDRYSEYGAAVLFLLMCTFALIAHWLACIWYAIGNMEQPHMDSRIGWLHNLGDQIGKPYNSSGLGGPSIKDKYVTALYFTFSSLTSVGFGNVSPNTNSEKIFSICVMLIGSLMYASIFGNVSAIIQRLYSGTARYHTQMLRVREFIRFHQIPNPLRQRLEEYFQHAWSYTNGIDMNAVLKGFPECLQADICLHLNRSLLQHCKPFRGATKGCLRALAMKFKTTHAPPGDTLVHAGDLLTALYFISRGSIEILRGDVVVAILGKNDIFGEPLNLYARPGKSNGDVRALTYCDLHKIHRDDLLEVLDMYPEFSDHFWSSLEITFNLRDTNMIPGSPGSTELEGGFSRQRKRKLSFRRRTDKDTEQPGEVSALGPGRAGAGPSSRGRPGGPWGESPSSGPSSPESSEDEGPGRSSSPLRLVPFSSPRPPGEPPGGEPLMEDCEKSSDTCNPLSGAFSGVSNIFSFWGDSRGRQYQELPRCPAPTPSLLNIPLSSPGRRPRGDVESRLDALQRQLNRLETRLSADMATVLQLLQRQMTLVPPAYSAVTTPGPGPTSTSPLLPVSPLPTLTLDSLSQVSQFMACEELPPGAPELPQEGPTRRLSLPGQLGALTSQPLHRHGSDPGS
Experimental: Eight-point concentration curves were generated using serial 3-fold dilutions from the maximum final assay concentration (3 μM). Electrophysiological recordings were made from a Chinese Hamster Lung cell line stably expressing the full length hERG channel Single cell ionic currents were measured in the perforated patch clamp configuration (100 μg/mL) amphotericin) at room temperature (21-23° C.) using an IonWorks Quattro instrument. The internal solution contained (mM): 140 KCl, 1 MgCl2, 1 EGTA, 20 HEPES and was buffered to pH 7.3. The external solution contained (mM):138 NaCl, 2.7 KCl, 0.9 CaCl2, 0.5 MgCl2, 8 Na2HPO4, 1.5 KH2PO4, also buffered to pH 7.3. Cells were clamped at a holding potential of −70 mV for 30 s and then stepped to +40 mV for 1 s. This was followed by a hyperpolarising step of 1 s to −30 mV to evoke the hERG tail current. This sequence was repeated 5 times at a frequency of 0.25 Hz. Currents were measured from the tail step at the 5th pulse, and referenced to the holding current. Compounds were then incubated for 6-7 minutes prior to a second measurement of the hERG signal using an identical pulse train. Eight-point concentration curves were generated using serial 3-fold dilutions from the maximum final assay concentration (3 μM).

C#Cc1cc(Nc2nccc(Oc3ccc(NC(=O)Nc4cc(C(C)(C)C)nn4-c4ccc(C)cc4)c4ccccc34)n2)cc(C(=O)NCCOCCOCCOC)c1 [Example 2, 3-((4-((4-(3-(3-(tert-Butyl)-1-(p-tolyl)-1H-pyrazol-5-yl)ureido)naphthalen-1-yl)oxy)pyrimidin-2-yl)amino)-5-ethynyl-N-(2-(2-(2-methoxyethoxy)ethoxy)ethyl)-benzamide]
microsomal CLint at 0.1 μM [1]: 199 µL/min/mg
hepatocyte CLint at 0.1 μM [2]: 37 µL/min/1e6 cells
IC50 [3]: 0.0025 µM
inhibition of the control specific binding in the receptor binding assays or enzyme assays [4]: less than 25%
% Inhibition of colon weight:length ([5]; 0.04 mg/kg BID oral): 25%#
% inhibition of IL-8 release ([5]; 0.04 mg/kg BID oral): 34%#
% inhibition of overall histopathology score ([5]; 0.04 mg/kg BID oral): 2%
% Inhibition of colon weight:length ([5]; 0.2 mg/kg BID oral): 23%
% inhibition of IL-8 release ([5]; 0.2 mg/kg BID oral): 39%
% inhibition of overall histopathology score ([5]; 0.2 mg/kg BID oral): 5%
% Inhibition of colon weight:length ([5]; 1 mg/kg BID oral): 43%#
% inhibition of IL-8 release ([5]; 1 mg/kg BID oral): 36%#
% inhibition of overall histopathology score ([5]; 1 mg/kg BID oral): 33%
% Inhibition of colon weight:length ([5]; 5 mg/kg BID oral): 61%*
% inhibition of IL-8 release ([5]; 5 mg/kg BID oral): 90%#
% inhibition of overall histopathology score ([5]; 5 mg/kg BID oral): 46%
IC50 ([6]; CYP2C9, 0 min preincubation): > 15 µM
IC50 ([6]; CYP2C9, 30 min preincubation): > 15 µM
inhibition at 0 min, 15 µM ([6]; human, pooled human liver microsomes, pH 7.4, CYP2C9, 0 min preincubation, 15 μM, read-out: 15 μM % Inh): 35%
inhibition at 30 min, 15 µM ([6]; human, pooled human liver microsomes, pH 7.4, CYP2C9, 30 min preincubation, 15 μM, read-out: 15 μM % Inh): 37%
hepatocyte CLint at 0.1 μM [7]: 46 µL/min/1e6 cells
IC50 [8]: > 3 µM
inhibition at 3 µM ([8]; human, pH 7.3, 3 μM, read-out: inhibition of the hERG channel): 0%
